These results are taken from a melting point compilation (Tetko et al.).

By melting point is commonly meant the temperature, or range, at which the solid turns liquid. Compound `Cc1ccc(S(=O)(=O)Cl)c([N+](=O)[O-])c1` returned a melting point of 97 to 99 °C. The figure for `Nc1cc(N2CCOCC2)c(F)cc1[N+](=O)[O-]` is 185 to 187 °C; for `Cc1cc(C)nc(N)c1` it is 63 to 64 °C. `O=C(O)CC(Br)C(=O)c1cccs1` (stereo not drawn) gave a melting point of 125 to 127 °C. Turning to `Cn1ccc(C(=O)c2ccc(F)cc2)n1`, the melting point fell in the range of 68 to 70 °C. As for `CCOC(=O)c1cnn(-c2ccc(C(F)(F)F)cn2)c1C`, the figure is 88 to 90 °C; as for `O=c1[nH]c2cc(F)ccc2c(=O)o1`, 240 to 242 °C; as for `CCc1nc2sccc2c(=O)[nH]1`, 199 to 201 °C. As for `CCOc1ccc(S(=O)(=O)N(CC)CC)cc1N`, the figure is 119 to 121 °C; as for `Cc1cc(F)cc2[nH]c(C(=O)O)cc12`, 261 to 263 °C; as for `Cc1ccc(C#N)cc1S(N)(=O)=O`, 194 to 196 °C. As for `NNC(=O)CC1CCCC1`, the figure is 82 to 84 °C; as for `Nc1ccccc1S(=O)(=O)Nc1ccccc1`, 118 to 120 °C. `CC(C)(C)OC(=O)C1CCN(C(=O)OCc2ccccc2)CC1`: the melting point is 56 to 58 °C. In turn, `CCC(C)n1ncc2c(C(=O)O)cc(C3CC3)nc21` (stereo not drawn) showed a melting point of 134 to 136 °C. As for `CN1C(=O)NC(=O)C12CCCCC2`, the figure is 172 to 174 °C.

As to `Cc1cc(C(=O)CCl)c(C)n1CC(F)(F)F`, the melting point was 143 to 145 °C. In turn, `Nc1ccc(CCn2nnc(-c3ccccc3)n2)cc1` came in with a melting point of 99 to 101 °C. As for `Cc1nc2ccccc2nc1CCl`, the figure is 121 to 123 °C; as for `O=C1CC(C(F)F)=NN1`, 149 to 151 °C.

In turn, `COc1ccc(C(N)Cc2ccccc2C)cc1OC` (stereo not drawn) registered a melting point of 49 to 51 °C. As for `Nc1ccc(Oc2ccc(F)cc2)c2ccncc12`, the figure is 149 to 151 °C; as for `Nc1n[nH]c(Cc2cccc(F)c2)n1`, 179 to 181 °C. In turn, `O=C(O)c1ccc(-c2nc(C3CC3)n[nH]2)cc1` registered a melting point of 237 to 239 °C. As for `COc1ccc(N2CCN(C(=O)CCCl)CC2)cc1`, the figure is 73 to 75 °C; as for `CSC(=CC(=O)c1cccnc1)SC`, 103 to 105 °C; as for `O=C(O)CCN1C(=O)C2C3CCC(O3)C2C1=O` (stereo not drawn), 185 to 187 °C. As for `O=c1[nH]cnc2ccc(Br)cc12`, the figure is 267 to 271 °C; as for `O=C(O)C1CCCN1C(=O)C1CCCC1` (stereo not drawn), 125 to 127 °C; as for `Nc1cc([N+](=O)[O-])ccc1Nc1ccc(F)cc1`, 162 to 164 °C.

As to `COC(=O)CC1=NC(=O)CS1`, the melting point lay within 184 to 186 °C. The figure for `CCOC(=O)c1cc(C)nc(-c2ccccc2)n1` is 94 to 96 °C; for `Cn1c(-c2ccccc2)c(C(=O)CCl)c2ccccc21` it is 146 to 148 °C. As for `c1cnc2c(c1)CCN2`, the figure is 79 to 81 °C. The figure for `O=C(O)CSc1nc(-c2ccccc2)no1` is 115 to 117 °C; for `NCc1cccc(CS(N)(=O)=O)c1` it is 142 to 144 °C; for `COc1ccc(NC2=C(Cl)C(=O)N(c3ccc(C)cc3)C2=O)cc1` it is 194 to 196 °C.

As for `Nc1cccc(-c2cn(Cc3ccccc3)nn2)c1`, the melting point lay within 139 to 141 °C. For the compound `CS(=O)(=O)c1ccc(C(N)=S)cc1`, the melting point was in the range of 216 to 218 °C. The figure for `CN(C(=O)c1ccco1)c1ccccc1C(=O)O` is 189 to 191 °C; for `CC(C)N(CCC#N)S(C)(=O)=O` it is 107 to 109 °C. As for `Cn1c(-c2ccccc2)cnc1SCC(=O)O`, the figure is 199 to 201 °C. Compound `COc1cccc(C(C)=CC(=O)O)c1` displayed a melting point of 102 to 104 °C. As for `NNc1ccc(S(=O)(=O)NC2CC2)cn1`, the figure is 195 to 197 °C.

In the case of `COc1cc(OC)cc(C(=O)c2c(N)sc3c2CCC(C)C3)c1` (stereo not drawn), the melting point lay within 162 to 164 °C. The figure for `NC(=O)c1cccc(O)c1` is 163 to 165 °C; for `CCNc1ccncc1` it is 103 to 105 °C. The figure for `COC(=O)CNS(=O)(=O)c1ccc(Cl)nc1` is 124 to 126 °C; for `O=C(O)c1cc(Br)c(Cl)[nH]1` it is 179 to 181 °C; for `O=C(O)c1ccccc1S(=O)(=O)N1CCCCC1` it is 106 to 108 °C. For `N=C1N=C2C=CC(Br)=CN2Cc2ccccc21`, the melting point is 178 to 180 °C. For `O=C(O)C1(c2ccc(Br)cc2)CCCCC1`, the melting point is 179 to 181 °C. Compound `O=C(O)c1cc(Cl)c(Cl)cc1C(=O)O` registered a melting point of 201 to 203 °C. As for `N#Cc1c(N2CCCC2)n[nH]c1N`, the figure is 208 to 210 °C. As for `CCOC(=O)c1oc(NC)nc1C`, the figure is 103 to 105 °C; as for `O=C(O)Cc1cc(-c2ccccc2)on1`, 172 to 174 °C; as for `COc1ccc(NS(=O)(=O)c2cc(N)ccc2OC)cc1`, 133 to 135 °C.

Regarding `Cc1ncccc1C(=O)O`, the melting point lay within 231 to 232 °C. As for `O=C(O)CCCc1ccc2[nH]c(=O)[nH]c2c1`, the figure is 244 to 246 °C; as for `COC(=O)c1cncc(I)c1`, 79 to 81 °C; as for `O=C(Nc1ccccc1C(=O)O)OCc1ccccc1`, 129 to 131 °C. As for `Nc1ccc(I)cc1Br`, the figure is 83 to 85 °C; as for `O=C(O)CSCc1coc(-c2ccccc2)n1`, 124 to 126 °C; as for `CCOC(=O)c1ccc2c(c1)NC(=O)C(C)N2` (stereo not drawn), 181 to 183 °C. As for `CCc1nc2ccccc2n1CC(=O)O`, the figure is 232 to 234 °C. In turn, `O=C(O)C1=C(Nc2ccccc2)OCC1=O` returned a melting point of 140 to 150 °C. `CC(=O)CC(=O)Nc1ccccc1F` gave a melting point of 75 to 77 °C. As for `CC(C)NS(=O)(=O)c1ccc(C(=O)O)cc1`, the figure is 225 to 227 °C; as for `CC(C)NC(=O)CSc1ccccc1C(=O)O`, 181 to 185 °C; as for `C1=CCC(c2nc3ccccc3[nH]2)CC1` (stereo not drawn), 209 to 211 °C.

`O=C(CCl)Nc1nnc(C2CC2)o1`: the melting point was 148 to 150 °C. As for `CN1CCN(c2nccc(Cl)n2)CC1`, the figure is 94 to 96 °C. As for `CN(Cc1c(F)cccc1Cl)C(=O)CCl`, the figure is 54 to 56 °C; as for `COC(=O)c1ccc(-c2csc(N)n2)cc1`, 239 to 241 °C. As for `Nc1ccc(Cl)cc1C(O)c1ccccc1` (stereo not drawn), the figure is 105 to 107 °C; as for `COC(=O)c1cc2nc(Cl)ccc2n1C`, 134 to 136 °C; as for `Cc1cc(N)c(C)cn1`, 145 to 147 °C. In the case of `CCCNc1nnc(S)s1`, the melting point lay within 105 to 107 °C. As for `Cc1c[nH]nc1[N+](=O)[O-]`, the figure is 183 to 185 °C; as for `CC(C)C(=O)N1CCCC1C(=O)O` (stereo not drawn), 118 to 120 °C. The figure for `Cc1ccc(S(=O)(=O)N(O)c2ccccc2)cc1` is 36 to 40 °C; for `O=C(O)CCNC(=O)c1ccco1` it is 135 to 139 °C.

`CC(C)n1ccc(C(=O)O)n1` gave a melting point of 77 to 79 °C.

With `Cc1cccc(CNCc2cccc(C)n2)n1`, the melting point was 44 to 46 °C. As for `Cc1ccccc1C(N)CO` (stereo not drawn), the figure is 99 to 101 °C.

As for `Nc1ccccc1-c1ccncc1`, the melting point is 83 to 85 °C. Regarding `COC(=O)c1noc(C(=O)OC)c1O`, the melting point lay in the range of 157 to 161 °C. `CS(=O)(=O)CCC(NC(=O)c1ccccc1Cl)C(=O)O` (stereo not drawn) yielded a melting point of 159 to 161 °C. As for `Cc1cc(-c2csc(N)n2)c(C)n1CC1CCCO1` (stereo not drawn), the figure is 112 to 116 °C; as for `COCCNC(N)=S`, 118 to 120 °C.

The compound `COc1cc(C)c(S(=O)(=O)Cl)cc1OC` came in with a melting point of 73 to 75 °C. As for `Oc1ccc2[nH]ncc2c1`, the figure is 184 to 186 °C; as for `NC(=O)C1CCC(O)CC1` (stereo not drawn), 204 to 206 °C.

`CN(C(=O)c1ccc(Br)o1)c1ccccc1C(=O)O` yielded a melting point of 167 to 169 °C. The figure for `O=C(O)CCc1cc(Br)ccc1F` is 84 to 86 °C; for `Nc1nc2ccc(Br)cn2n1` it is 183 to 185 °C; for `O=c1[nH]cnc2c(Br)cccc12` it is 317 to 319 °C.

Regarding `N#Cc1ccccc1N1CCOCC1`, the melting point was in the range of 48 to 50 °C. The figure for `Cc1ccc(-n2cccc2)c(C(=O)O)c1` is 126 to 128 °C; for `O=C1CCc2cc(Br)c(S(=O)(=O)Cl)cc2N1` it is 224 to 226 °C.

`Cc1cc(C)c(C(=O)CCl)c(C)c1C` showed a melting point of 61 to 63 °C. The figure for `O=C(O)c1occc1Br` is 155 to 157 °C; for `CC(C)C(NC(=O)c1ccc([N+](=O)[O-])cc1Cl)C(=O)O` (stereo not drawn) it is 145 to 147 °C. Take `O=C(O)c1cccn1Cc1cccnc1`: the melting point lay in the range of 172 to 174 °C. The figure for `O=C1CNc2ccncc2N1` is 259 to 261 °C; for `CC(=CC(=O)O)c1ccc(C(F)(F)F)cc1` it is 122 to 124 °C; for `CN(C)c1ccc(S(N)(=O)=O)cc1N` it is 150 to 154 °C. As to `Cn1ccnc1C(N)c1ccccc1F` (stereo not drawn), the melting point fell in the range of 58 to 60 °C. As for `O=C1CCCN1C1CCNCC1`, the figure is 84 to 86 °C. As for `O=C(O)c1ccc(-c2cccc3ccccc23)s1`, the figure is 249 to 251 °C; as for `O=C(O)c1noc(-c2ccccc2Cl)n1`, 119 to 121 °C; as for `O=C(O)CCNC(=O)C1CCC1`, 105 to 107 °C. The figure for `CC(=O)NC1CCCN(C(=O)CCl)C1` (stereo not drawn) is 110 to 112 °C; for `O=S(=O)(c1ccc(Cl)nc1)N1CCCCC1` it is 130 to 132 °C; for `O=C(CN1CCNCC1)NCc1ccccc1` it is 49 to 51 °C. The compound `CCNc1ccc(Br)cn1` came in with a melting point of 67 to 69 °C. `CCNC(=O)Nc1cccc(N)c1` showed a melting point of 122 to 124 °C. Consider `O=C(O)c1ccc(NS(=O)(=O)c2ccc3c(c2)OCCO3)cc1`, for which the melting point was 94 to 97 °C. As for `O=c1[nH]c(N2CCOCC2)nc2scc(-c3ccccc3)c12`, the figure is 307 to 309 °C; as for `O=C(CN1CCNCC1)Nc1cccc(F)c1`, 68 to 70 °C.

With `CC(C)NS(=O)(=O)c1ccccc1C(=O)O`, the melting point is 111 to 113 °C. The figure for `CNC(=O)c1cccc(O)c1` is 108 to 110 °C.

For `CCN1C(=O)C(=O)c2ccc(Br)cc21`, the melting point was in the range of 118 to 120 °C.
